Data published in US11459312B2, “Sulphur substituted 3-oxo-2,3-dihydropyridazine-4-carboxamides” (Bayer Aktiengesellschaft, priority 2017, dated 2022).

These molecules were tested against T1, AHR (Homo sapiens, UniProt P35869) (assay: In vitro assay 1: AHR-luc transactivation assay, antagonism in human cell line (U87 glioblastoma cells, kynurenic acid prestimulated)). Conditions: firefly luciferase DRE reporter, 150 μM kynurenic acid, 20 hours, read-out: Assay 1: AHR-luc Hum Antagonism IC50.
T1 sequence (P35869 11-848): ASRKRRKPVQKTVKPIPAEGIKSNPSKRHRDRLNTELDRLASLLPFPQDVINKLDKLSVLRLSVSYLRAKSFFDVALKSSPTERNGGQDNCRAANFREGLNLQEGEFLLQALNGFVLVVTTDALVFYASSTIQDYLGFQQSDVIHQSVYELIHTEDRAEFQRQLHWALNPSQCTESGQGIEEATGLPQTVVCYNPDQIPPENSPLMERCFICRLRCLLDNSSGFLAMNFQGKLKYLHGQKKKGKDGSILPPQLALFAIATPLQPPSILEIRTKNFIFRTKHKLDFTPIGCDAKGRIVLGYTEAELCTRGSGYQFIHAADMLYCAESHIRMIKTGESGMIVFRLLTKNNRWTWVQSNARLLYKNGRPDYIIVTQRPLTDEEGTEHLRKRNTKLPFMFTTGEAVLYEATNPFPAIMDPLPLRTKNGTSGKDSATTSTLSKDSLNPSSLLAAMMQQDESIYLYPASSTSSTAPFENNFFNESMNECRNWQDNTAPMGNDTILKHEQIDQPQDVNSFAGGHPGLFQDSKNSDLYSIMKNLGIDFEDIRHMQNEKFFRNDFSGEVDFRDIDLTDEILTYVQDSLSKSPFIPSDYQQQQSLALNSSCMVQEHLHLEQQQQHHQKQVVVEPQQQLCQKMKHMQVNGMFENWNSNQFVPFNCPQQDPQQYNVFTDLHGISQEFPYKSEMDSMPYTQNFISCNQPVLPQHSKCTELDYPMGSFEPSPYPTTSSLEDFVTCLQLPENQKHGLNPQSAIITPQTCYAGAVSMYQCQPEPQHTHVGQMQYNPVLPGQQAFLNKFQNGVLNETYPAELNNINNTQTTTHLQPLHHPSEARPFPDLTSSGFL
Type: cell-based
Set-up: U87 glioblastoma cells (ATCC) endogenously expressing AHR; host or cells: U87 glioblastoma cells, stably transfected with DRE-firefly luciferase and renilla reporter constructs only
Method: Transactivation Assay in Human Cell Line (In Vitro Assays 1 and 2)
Transactivation assays were carried out in U87 glioblastoma cells (ATCC) endogenously expressing AHR. In addition the cells were stably transfected with an AHR inducible firefly luciferase reporter gene construct that carried AHR-binding sites (DRE) in its promoter and a renilla reporter gene construct with constitutively active promoter. Kynurenic acid is an endogenous AHR activating ligand and was used to prestimulate test cells prior to testing the antagonistic properties of compounds.
In Vitro Assay 1: Antagonism in Human Cell Line
Cells in medium (tryptophan free RPMI, 1% FCS, 2 mM Glutamine) supplemented with 150 μM kynurenic acid were grown for 20 hours in absence (negative control) or presence of increasing concentrations of test compounds (typical dilutions: […], 0.25 nmol/L, 0.89 nmol/L; 3.1 nmol/L, 11 nmol/L, 38 nmol/L, 130 nmol/L, 470 nmol/L, 1.6 μmol/L, 5.7 μmol/L and 20 μmol/L in duplicates). As positive inhibition control cells supplemented with 150 μM kynurenic acid were incubated in presence of 5 μM Staurosporin. Normalization was done by positive and negative controls.
Firefly luciferase and Renilla activity was determined by the DualGlo Luciferase Assay System (Promega, #2920). Renilla activity was used to assess toxic effects of compounds.

**Q.** How did the IC50 turn out when `C[C@@H](C[S+](C)[O-])NC(=O)c1cc(-c2ccc(Cl)cc2)nn(-c2cccc(F)c2)c1=O` (mixture of isomers) [Example 3, 6-(4-Chlorophenyl)-2-(3-fluorophenyl)-N-[(2S)-1-(methylsulfinyl)propan-2-yl]-3-oxo-2,3-dihydropyridazine-4-carboxamide] was run?
**A.** The IC50 was 44.2 nM.

**Q.** How did the IC50 turn out when `C[C@@H](CS(C)(=N)=O)NC(=O)c1cc(-c2ccc(Cl)cc2)nn(-c2cccc(F)c2)c1=O` (mixture of isomers) [Example 6, 6-(4-Chlorophenyl)-2-(3-fluorophenyl)-N-[(2S)-1-(S-methylsulfonimidoyl)propan-2-yl]-3-oxo-2,3-di hydropyridazine-4-carboxamide] was run?
**A.** The IC50 was 232 nM.

**Q.** Which IC50 does the source give for `C[C@@H](C[S+](C)[O-])NC(=O)c1cc(-c2ccc(C(F)(F)F)cc2)nn(-c2cnn(C)c2)c1=O` (mixture of isomers) [Example 23, 2-(1-Methyl-1H-pyrazol-4-yl)-N-[(2S)-1-(methylsulfinyl)propan-2-yl]-3-oxo-6-[4-(trifluoromethyl)phenyl]-2,3-dihydropyridazine-4-carboxamide] here?
**A.** The IC50 was 5.37 nM.

**Q.** For `C[C@@H](CS(C)(=N)=O)NC(=O)c1cc(-c2ccc(C(F)(F)F)cc2)nn(-c2cnn(C)c2)c1=O` (mixture of isomers) [Example 38, 2-(1-Methyl-1H-pyrazol-4-yl)-N-[(2S)-1-(S-methylsulfonimidoyl)propan-2-yl]-3-oxo-6-[4-(trifluoromethyl)phenyl]-2,3-dihydropyridazine-4-carboxamide], which IC50 is on record?
**A.** The IC50 was 54.8 nM.

**Q.** Which IC50 does the source give for `O=C(N[C@@H]1CS(=O)(=O)C[C@@H]1O)c1cc(-c2ccc(C(F)(F)F)cc2)nn(-c2cnsc2)c1=O` (relative stereo) [Example 10, N-[(cis)-4-hydroxy-1,1-dioxidotetrahydro-thiophen-3-yl]-3-oxo-2-(1,2-thiazol-4-yl)-6-[4-(trifluoromethyl)phenyl]-2,3-dihydropyridazine-4-carboxamdie] here?
**A.** The IC50 was 2.41 nM.

**Q.** Which IC50 does the source give for `O=C(N[C@@H]1CS(=O)(=O)C[C@@H]1O)c1cc(-c2ccc(C(F)(F)F)cc2)nn(-c2cccnc2)c1=O` (relative stereo) [Example 16, N-[(cis)-4-hydroxy-1,1-dioxidotetrahydro-thiophen-3-yl]-3-oxo-2-(pyridin-3-yl)-6-[4-(trifluoromethyl)phenyl]-2,3-dihydropyridazine-4-carboxamide] here?
**A.** Its IC50 is 29.2 nM.

**Q.** `O=C(N[C@@H]1CS(=O)(=O)C[C@@H]1O)c1cc(-c2ccc(C(F)(F)F)nc2)nn(-c2cccc(F)c2)c1=O` (relative stereo) [Example 19, 2-(3-fluorophenyl)-N-[(cis)-4-hydroxy-1,1-dioxidotetrahydro-thiophen-3-yl]-3-oxo-6-[6-(trifluoromethyl)pyridin-3-yl]-2,3-dihydropyridazine-4-carboxamide] was tested. Which IC50 did it give?
**A.** Its IC50 is 69.9 nM.

**Q.** Which IC50 does the source give for `Cn1cc(-n2nc(-c3ccc(C(F)(F)F)cc3)cc(C(=O)N[C@@H]3C[S+]([O-])C[C@@H]3O)c2=O)cn1` (relative stereo) [Example 32, N-[(cis)-4-hydroxy-1-oxidotetrahydro-thiophen-3-yl]-2-(1-methyl-1H-pyrazol-4-yl)-3-oxo-6-[4-(trifluoromethyl)phenyl]-2,3-dihydropyridazine-4-carboxamide] here?
**A.** Its IC50 is 41.6 nM.

**Q.** How did the IC50 turn out when `O=C(N[C@@H]1C[S+]([O-])C[C@@H]1O)c1cc(-c2ccc(C(F)(F)F)cc2)nn(-c2cccnc2)c1=O` (relative stereo) [Example 33, N-[(cis)-4-hydroxy-1-oxidotetrahydro-thiophen-3-yl]-3-oxo-2-(pyridin-3-yl)-6-[4-(trifluoromethyl)phenyl]-2,3-dihydropyridazine-4-carboxamide] was run?
**A.** Its IC50 is 139 nM.

**Q.** For `C[C@@H](C[S+](C)[O-])NC(=O)c1cc(-c2ccc(Cl)cc2)nn(-c2cccc(F)c2)c1=O` (single isomer, unassigned) [Example 4], which IC50 is on record?
**A.** The IC50 was 40.2 nM.

**Q.** Which IC50 does the source give for `C[C@@H](C[S+](C)[O-])NC(=O)c1cc(-c2ccc(Cl)cc2)nn(-c2cccc(F)c2)c1=O` (single isomer, unassigned) [Example 5] here?
**A.** Its IC50 is 180 nM.

**Q.** `C[C@@H](CS(C)(=N)=O)NC(=O)c1cc(-c2ccc(Cl)cc2)nn(-c2cccc(F)c2)c1=O` (single isomer, unassigned) [Example 7] was tested. Which IC50 did it give?
**A.** The IC50 was 241 nM.

**Q.** With `C[C@@H](CS(C)(=N)=O)NC(=O)c1cc(-c2ccc(Cl)cc2)nn(-c2cccc(F)c2)c1=O` (single isomer, unassigned) [Example 8] as the molecule, how does the IC50 read?
**A.** Its IC50 is 140 nM.

**Q.** With `O=C(N[C@@H]1CS(=O)(=O)C[C@@H]1O)c1cc(-c2ccc(C(F)(F)F)cc2)nn(-c2cnsc2)c1=O` (single isomer, unassigned) [Example 11, (−)-N-[(cis)-4-hydroxy-1,1-dioxidotetrahydro-thiophen-3-yl]-3-oxo-2-(1,2-thiazol-4-yl)-6-[4-(trifluoromethyl)phenyl]-2,3-dihydropyridazine-4-carboxamide] as the molecule, how does the IC50 read?
**A.** Its IC50 is 3.46 nM.

**Q.** For `O=C(N[C@@H]1CS(=O)(=O)C[C@@H]1O)c1cc(-c2ccc(C(F)(F)F)cc2)nn(-c2cnsc2)c1=O` (single isomer, unassigned) [Example 12, (+)-N-[(cis)-4-hydroxy-1,1-dioxidotetra-hydrothiophen-3-yl]-3-oxo-2-(1,2-thiazol-4-yl)-6-[4-(trifluoromethyl)phenyl]-2,3-dihydropyridazine-4-carboxamide], which IC50 is on record?
**A.** Its IC50 is 1.11 nM.

**Q.** `O=C(N[C@@H]1CS(=O)(=O)C[C@@H]1O)c1cc(-c2ccc(C(F)(F)F)cc2)nn(-c2cccc(F)c2)c1=O` (single isomer, unassigned) [Example 14, (+)-2-(3-fluorophenyl)-N-[(cis)-4-hydroxy-1,1-dioxidotetrahydro-thiophen-3-yl]-3-oxo-6-[4-(trifluoromethyl)phenyl]-2,3-dihydropyridazine-4-carboxamide] was tested. Which IC50 did it give?
**A.** Its IC50 is 6.45 nM.

**Q.** Which IC50 does the source give for `O=C(N[C@@H]1CS(=O)(=O)C[C@@H]1O)c1cc(-c2ccc(C(F)(F)F)cc2)nn(-c2cccnc2)c1=O` (single isomer, unassigned) [Example 17, (+)-N-[(cis)-4-hydroxy-1,1-dioxidotetrahydro-thiophen-3-yl]-3-oxo-2-(pyridin-3-yl)-6-[4-(trifluoromethyl)phenyl]-2,3-dihydropyridazine-4-carboxamide] here?
**A.** The IC50 was 16.2 nM.

**Q.** Which IC50 does the source give for `O=C(N[C@@H]1CS(=O)(=O)C[C@@H]1O)c1cc(-c2ccc(C(F)(F)F)cc2)nn(-c2cccnc2)c1=O` (single isomer, unassigned) [Example 18] here?
**A.** Its IC50 is 38.2 nM.

**Q.** How did the IC50 turn out when `O=C(N[C@@H]1CS(=O)(=O)C[C@@H]1O)c1cc(-c2ccc(C(F)(F)F)nc2)nn(-c2cccc(F)c2)c1=O` (single isomer, unassigned) [Example 20, (+)-2-(3-fluorophenyl)-N-[(cis)-4-hydroxy-1,1-dioxidotetrahydro-thiophen-3-yl]-3-oxo-6-[6-(trifluoromethyl)pyridin-3-yl]-2,3-dihydropyridazine-4-carboxamide] was run?
**A.** Its IC50 is 54.3 nM.

**Q.** `O=C(N[C@@H]1CS(=O)(=O)C[C@@H]1O)c1cc(-c2ccc(C(F)(F)F)nc2)nn(-c2cccc(F)c2)c1=O` (single isomer, unassigned) [Example 21, (−)-2-(3-fluorophenyl)-N-[(cis)-4-hydroxy-1,1-dioxidotetrahydro-thiophen-3-yl]-3-oxo-6-[6-(trifluoromethyl)pyridin-3-yl]-2,3-dihydropyridazine-4-carboxamide] was tested. Which IC50 did it give?
**A.** Its IC50 is 205 nM.

**Q.** For `C[C@@H](C[S+](C)[O-])NC(=O)c1cc(-c2ccc(C(F)(F)F)cc2)nn(-c2cnn(C)c2)c1=O` (single isomer, unassigned) [Example 25], which IC50 is on record?
**A.** Its IC50 is 41.4 nM.

**Q.** With `O=C(N[C@@H]1C[S+]([O-])C[C@@H]1O)c1cc(-c2ccc(Cl)cc2)nn(-c2cccc(F)c2)c1=O` (single isomer, unassigned) [Example 26, 6-(4-chlorophenyl)-2-(3-fluorophenyl)-N-[(cis)-4-hydroxy-1-oxidotetrahydro-thiophen-3-yl]-3-oxo-2,3-dihydropyridazine-4-carboxamide] as the molecule, how does the IC50 read?
**A.** The IC50 was 33.3 nM.
